Tests used:
Format in all cases: cell-based
SKBR3 (PIK3CA WT) cells = assay: pS473 AKT assay, SKBR3 cells; details: Homo sapiens, SK-BR-3, pSer473 AKT, complete medium with 10% fetal bovine serum, 2 h treatment, read-out: SKBR3_IC50
Procedure: (§1) Example A. pS473 AKT Assay Protocol
(§2) SKBR3 (PIK3CA WT), MCF7 (PIK3CA E545K), and T47D (PIK3CA H1047R) cells were cultured using 10-cm petri dishes with recommended medium plus 10% fetal bovine serum. One day before the assay, cells were seeded in 96-well plates at a final density of 10,000 cells per well. After overnight incubation in complete medium, cells were treated with different concentrations of PI3Kα inhibitors for 2 h. Cells were then fixed using 4% paraformaldehyde at room temperature for 20 min. Aspirate 4% paraformaldehyde, and wash cells using 1× regular phosphate buffered saline 3 times, 5 min each. Aspirate any residual phosphate buffered saline and block cells using 10% goat serum containing 1% bovine serum albumin and 0.3% Triton X-100 at room temperature for 1 h. Without any additional washing, primary antibodies (rabbit anti-pSer473 AKT) were diluted using blocking buffer and added at a final volume of 50 microliter per well. Keep assay plates with primary antibodies overnight at 4° C. Wash cells using 1× regular phosphate buffered saline 3 times, 5 min each. After the final wash, incubate cells with horseradish peroxidase-conjugated secondary antibodies (goat Anti-rabbit IgG) diluted using the same blocking buffer at room temperature for 1 h. Wash cells thoroughly using 1× regular phosphate buffered saline 3 times, 5 min each. Aspirate any residual phosphate buffered saline. Add Super-Signal ELISA Pico Chemiluminescent Substrate at a final volume of 100 microliter per well. Read plates on i3x Multi-Mode Microplate Reader and calculate IC50 values using GraphPad Prism software.

[1] = test system: MCF7 (PIK3CA E545K) cells; assay: pS473 AKT assay, MCF7 cells; details: Homo sapiens, pSer473 AKT, complete medium with 10% fetal bovine serum, 2 h treatment, read-out: MCF7_IC50
Procedure: as §1, §2

[2] = test system: T47D (PIK3CA H1047R) cells; assay: pS473 AKT assay, T47D cells; details: Homo sapiens, pSer473 AKT, complete medium with 10% fetal bovine serum, 2 h treatment, read-out: T47D_IC50
Procedure: as §1, §2

Question: With `C=Cc1cnn2c3c(C(C)Nc4ccccc4C(=O)O)cc(C)cc3c(=O)n(C)c12` (stereo not drawn) [Compound I-3, 2-((1-(4,7-dimethyl-5-oxo-3-vinyl-4,5-dihydropyrazolo[1,5-a]quinazolin-9-yl)ethyl)amino)benzoic acid] as the compound, how does the IC50 (SKBR3 (PIK3CA WT) cells) read?
Answer: Its IC50 is > 30 µM.

Question: And the IC50 [1]?
Answer: The IC50 was > 30 µM.

Question: And the IC50 [2]?
Answer: Its IC50 is 1 to 5 µM.
